Reference: ChEMBL document CHEMBL3217452, “Design, synthesis, and structureactivity relationships of 1,3,4-oxadiazol-2(3H)-ones as novel FAAH inhibitors” (Medchemcomm, 2011)

Columns and labels:
Mus musculus [1] = assay: Inhibition of FAAH in mouse liver at 30 mg/kg, po after 1 hr; type: functional; conditions: values are per cent of control
Mus musculus [2] = assay: Inhibition of FAAH in mouse brain at 30 mg/kg, po after 1 hr; type: functional; conditions: values are per cent of control
Mus musculus [3] = assay: Inhibition of FAAH in mouse brain at 10 mg/kg, po after 8 hrs; type: functional; conditions: values are per cent of control
Mus musculus [4] = assay: Inhibition of FAAH in mouse brain at 10 mg/kg, po after 24 hrs; type: functional; conditions: values are per cent of control
Mus musculus [5] = assay: Inhibition of FAAH in mouse brain at 10 mg/kg, po after 4 hrs; type: functional; conditions: values are per cent of control
Mus musculus [6] = assay: Inhibition of FAAH in mouse liver at 10 mg/kg, po after 1 hr; type: functional; conditions: values are per cent of control
Mus musculus [7] = assay: Inhibition of FAAH in mouse liver at 10 mg/kg, po after 24 hrs; type: functional; conditions: values are per cent of control
Mus musculus [8] = assay: Inhibition of FAAH in mouse liver at 10 mg/kg, po after 8 hrs; type: functional; conditions: values are per cent of control
Mus musculus [9] = assay: Inhibition of FAAH in mouse brain at 10 mg/kg, po after 1 hr; type: functional; conditions: values are per cent of control
Mus musculus [10] = assay: Inhibition of FAAH in mouse liver at 10 mg/kg, po after 4 hrs; type: functional; conditions: values are per cent of control
[11] = biological target: T1, Fatty-acid amide hydrolase 1 (Rattus norvegicus) (UniProt P97612); assay: Inhibition of FAAH in rat brain homogenates using [3H]-anandamide as substrate assessed as formation of [3H]-ethanolamine at 10 uM relative to control; type: tissue-based; conditions: values are per cent of control
T1 sequence (whole entry): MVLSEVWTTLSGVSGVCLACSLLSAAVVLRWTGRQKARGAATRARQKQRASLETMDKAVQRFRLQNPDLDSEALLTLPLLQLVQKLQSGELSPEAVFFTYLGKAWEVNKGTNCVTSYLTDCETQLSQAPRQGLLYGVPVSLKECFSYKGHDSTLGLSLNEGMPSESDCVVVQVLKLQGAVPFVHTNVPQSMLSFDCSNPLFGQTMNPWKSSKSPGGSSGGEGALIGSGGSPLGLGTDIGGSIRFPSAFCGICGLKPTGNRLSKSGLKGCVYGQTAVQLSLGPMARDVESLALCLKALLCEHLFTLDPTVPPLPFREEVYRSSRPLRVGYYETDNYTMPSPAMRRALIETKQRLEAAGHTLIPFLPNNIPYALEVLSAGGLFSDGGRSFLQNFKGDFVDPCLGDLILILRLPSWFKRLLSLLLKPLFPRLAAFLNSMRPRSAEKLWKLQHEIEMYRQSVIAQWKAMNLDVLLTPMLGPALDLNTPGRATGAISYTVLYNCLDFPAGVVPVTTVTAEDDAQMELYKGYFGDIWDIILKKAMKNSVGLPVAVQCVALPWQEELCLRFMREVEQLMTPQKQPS

[12] = biological target: T2, Fatty-acid amide hydrolase 1 (Homo sapiens, UniProt O00519); assay: Inhibition of FAAH (unknown origin)
T2 sequence (O00519 whole entry): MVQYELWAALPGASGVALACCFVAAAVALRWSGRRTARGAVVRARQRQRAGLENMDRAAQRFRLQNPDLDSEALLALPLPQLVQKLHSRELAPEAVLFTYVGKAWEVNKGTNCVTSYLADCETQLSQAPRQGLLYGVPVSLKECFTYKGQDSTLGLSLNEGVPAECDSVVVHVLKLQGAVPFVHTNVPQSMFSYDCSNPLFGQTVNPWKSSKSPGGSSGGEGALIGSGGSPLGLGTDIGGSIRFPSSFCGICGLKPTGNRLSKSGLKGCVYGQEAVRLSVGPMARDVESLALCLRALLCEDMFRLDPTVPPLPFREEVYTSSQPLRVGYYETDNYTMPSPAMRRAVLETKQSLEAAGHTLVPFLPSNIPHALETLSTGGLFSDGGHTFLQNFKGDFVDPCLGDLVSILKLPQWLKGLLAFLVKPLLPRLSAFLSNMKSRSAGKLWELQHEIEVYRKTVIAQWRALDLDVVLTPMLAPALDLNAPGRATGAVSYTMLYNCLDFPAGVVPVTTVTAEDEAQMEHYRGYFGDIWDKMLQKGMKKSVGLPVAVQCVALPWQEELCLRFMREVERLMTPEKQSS

Mus musculus [13] = assay: Inhibition of FAAH in mouse brain at 30 mg/kg, po after 24 hrs; type: functional; conditions: values are per cent of control
Mus musculus [14] = assay: Inhibition of FAAH in mouse brain at 30 mg/kg, po after 8 hrs; type: functional; conditions: values are per cent of control
Mus musculus [15] = assay: Inhibition of FAAH in mouse liver at 30 mg/kg, po after 4 hrs; type: functional; conditions: values are per cent of control
Mus musculus [16] = assay: Inhibition of FAAH in mouse liver at 30 mg/kg, po after 8 hrs; type: functional; conditions: values are per cent of control
Mus musculus [17] = assay: Inhibition of FAAH in mouse brain at 30 mg/kg, po after 4 hrs; type: functional; conditions: values are per cent of control
Mus musculus [18] = assay: Inhibition of FAAH in mouse liver at 30 mg/kg, po after 24 hrs; type: functional; conditions: values are per cent of control

Row | SMILES | residual activity at 30 mg/kg (Mus musculus [1]) | residual activity at 30 mg/kg (Mus musculus [2]) | also measured
1 | O=c1oc(Oc2ccccc2)nn1-c1ccccc1F | 72% | – | –
2 | O=c1oc(Oc2ccc(Cl)cc2)nn1-c1ccc(O)cc1 | 20% | 38% | –
3 | O=c1oc(Oc2ccc(Cl)cc2)nn1-c1ccc(O)c(O)c1 | 5% | 83% | residual activity at 10 mg/kg (Mus musculus [3]): 96%; residual activity at 10 mg/kg (Mus musculus [4]): 102%; residual activity at 10 mg/kg (Mus musculus [5]): 90%; residual activity at 10 mg/kg (Mus musculus [6]): 10%; residual activity at 10 mg/kg (Mus musculus [7]): 91%; residual activity at 10 mg/kg (Mus musculus [8]): 38%; residual activity at 10 mg/kg (Mus musculus [9]): 99%; residual activity at 10 mg/kg (Mus musculus [10]): 17%
4 | O=c1oc(OCc2ccccc2)nn1Cc1ccccc1 | – | – | residual activity [11]: 86%
5 | O=c1oc(Oc2ccccc2)nn1-c1ccc(F)cc1F | 65% | 86% | –
6 | COc1nn(-c2cccc(Cl)c2)c(=O)o1 | – | – | residual activity [11]: 5%
7 | O=c1oc(Oc2ccc([N+](=O)[O-])cc2)nn1-c1ccc(O)cc1 | 45% | 96% | –
8 | O=c1oc(Oc2ccc(F)cc2F)nn1-c1ccc(O)cc1 | 12% | 86% | –
9 | O=c1oc(Oc2ccccc2F)nn1-c1ccc(O)cc1 | 44% | 94% | –
10 | O=c1oc(-c2ccccc2)nn1-c1ccccc1 | – | – | residual activity [11]: 110%
11 | O=c1oc(Oc2ccc(F)cc2F)nn1-c1ccccc1 | 39% | 94% | –
12 | O=c1oc(Oc2ccc(F)cc2F)nn1-c1ccc(O)c(O)c1 | 4% | 66% | residual activity at 10 mg/kg (Mus musculus [3]): 103%; residual activity at 10 mg/kg (Mus musculus [4]): 104%; residual activity at 10 mg/kg (Mus musculus [5]): 100%; residual activity at 10 mg/kg (Mus musculus [6]): 6%; residual activity at 10 mg/kg (Mus musculus [7]): 79%; residual activity at 10 mg/kg (Mus musculus [8]): 27%; residual activity at 10 mg/kg (Mus musculus [9]): 102%; residual activity at 10 mg/kg (Mus musculus [10]): 18%
13 | O=c1oc(Oc2ccc(F)cc2)nn1-c1cccc(O)c1 | 24% | 99% | –
14 | O=c1oc(Oc2ccc(Cl)cc2)nn1-c1ccccc1 | 81% | 110% | –
15 | O=c1oc(Oc2ccc(Cl)cc2)nn1-c1cccc(O)c1 | 10% | 100% | –
16 | O=c1oc(N2CCOCC2)nn1-c1cccc(Cl)c1 | – | – | residual activity [11]: 104%
17 | O=c1oc(Oc2ccccc2)nn1-c1cccc(O)c1 | 33% | 95% | –
18 | COc1cc(Br)ccc1Oc1nn(-c2ccccc2)c(=O)o1 | 83% | 101% | –
19 | COc1nn(-c2ccc(Oc3ccccc3)cc2)c(=O)o1 | – | – | IC50 [12]: 6.1 nM
20 | O=C(c1ccccc1)c1nn(-c2ccccc2)c(=O)o1 | – | – | residual activity [11]: 84%
21 | COc1ccc(Oc2nn(-c3ccccc3)c(=O)o2)cc1 | 94% | 108% | –
22 | O=c1oc(Oc2ccc(F)cc2F)nn1-c1cccc(O)c1 | 12% | 94% | –
23 | O=c1oc(Oc2ccc(Cl)cc2Cl)nn1-c1ccc(O)cc1 | 9% | 59% | residual activity at 30 mg/kg (Mus musculus [13]): 99%; residual activity at 30 mg/kg (Mus musculus [14]): 52%; residual activity at 30 mg/kg (Mus musculus [15]): 18%; residual activity at 30 mg/kg (Mus musculus [16]): 11%; residual activity at 30 mg/kg (Mus musculus [17]): 72%; residual activity at 30 mg/kg (Mus musculus [18]): 103%
24 | O=c1oc(Cc2ccccc2)nn1-c1ccccc1 | – | – | residual activity [11]: 97%
25 | O=c1oc(Oc2ccc(Cl)cc2)nn1-c1ccc(O)cc1F | 4% | 64% | residual activity at 30 mg/kg (Mus musculus [13]): 80%; residual activity at 30 mg/kg (Mus musculus [14]): 57%; residual activity at 30 mg/kg (Mus musculus [16]): 7%; residual activity at 30 mg/kg (Mus musculus [17]): 34%; residual activity at 30 mg/kg (Mus musculus [18]): 79%
26 | O=c1oc(Oc2ccccc2)nn1-c1ccc(O)cc1 | 46% | 97% | –
27 | O=c1oc(Oc2ccc(F)cc2)nn1-c1ccc(O)cc1 | 30% | 82% | –
